Reference: ChEMBL document CHEMBL5096127, “Using ChEMBL to complement schistosome drug discovery” (2023)
Active and inactive are the calls of the source. How the calls were made is not given here.

Legend:
Schistosoma mansoni [1] = assay: In vitro activity on S. mansoni schistosomula at 50 uM; format: functional, organism-based; set-up: test concentration 50 uM, temperature 37 degree C, time incubation 72 h; details: Puerto Rican
Schistosoma mansoni [2] = assay: In vitro activity on S. mansoni schistosomula at 10 uM; format: functional, organism-based; set-up: test concentration 10 uM, temperature 37 degree C, time incubation 72 h; details: Puerto Rican
Schistosoma mansoni [3] = assay: EC50 on S. mansoni schistosomula; format: functional, organism-based; details: Puerto Rican
Schistosoma mansoni [4] = format: functional, Puerto Rican; details: temperature 37 degree C; tested at 10 uM; Worm movement inhibition (compared to DMSO control)_lower value 0 %; Worm movement inhibition (compared to DMSO control)_upper value 100 %
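Wherever Worm movement inhibition is given: in vitro assay using adult worms.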

For `CC(/C=C/C(=O)NO)=C\[C@@H](C)C(=O)c1ccc(N(C)C)cc1` [TRICHOSTATIN], the In vitro activity (Schistosoma mansoni [1]) was “Active”, the In vitro activity (Schistosoma mansoni [2]) was “Active” and the EC50 (Schistosoma mansoni [3]) was 558 nM. It also gave a Worm movement inhibition (Schistosoma mansoni [4]) of 8.13%.
In the case of `CC[C@H](C)[C@H](NC(=O)[C@H]([C@@H](C)CC)N(C)C(C)=O)C(=O)N[C@H](C(=O)N[C@@H](CC(C)C)C(=O)[C@@]1(C)CO1)[C@@H](C)O` [EPOXOMYCIN], the In vitro activity (Schistosoma mansoni [1]) is reported as “Active”, the In vitro activity (Schistosoma mansoni [2]) is reported as “Active” and the EC50 (Schistosoma mansoni [3]) is reported as 226 nM. For the same molecule, the Worm movement inhibition (Schistosoma mansoni [4]) was 97.15%.
`Cl.Cl.O=C(NCCCNc1nc(Nc2cccc(CN3CCOCC3)c2)ncc1C1CC1)C1CCC1` was tested, and the In vitro activity (Schistosoma mansoni [1]) was “Active”, the In vitro activity (Schistosoma mansoni [2]) was “Active” and the EC50 (Schistosoma mansoni [3]) was 3130 nM. The Worm movement inhibition (Schistosoma mansoni [4]) was 97.58%.
With `CCNC(=O)c1cc2c(-c3cc(OCCN4CCCC4)c(Cl)cc3Cl)nc(N)nc2s1` the In vitro activity (Schistosoma mansoni [1]) was “Active”, the In vitro activity (Schistosoma mansoni [2]) was “Active” and the EC50 (Schistosoma mansoni [3]) was 547 nM. The Worm movement inhibition (Schistosoma mansoni [4]) was 91.33%.
In the case of `COc1cc(N2CCC(N3CCN(C)CC3)CC2)ccc1Nc1ncc(Cl)c(Nc2ccccc2S(=O)(=O)C(C)C)n1` [TAE-684], the In vitro activity (Schistosoma mansoni [1]) is reported as “Active”, the In vitro activity (Schistosoma mansoni [2]) is reported as “Active” and the EC50 (Schistosoma mansoni [3]) is reported as 2400 nM. For the same molecule, the Worm movement inhibition (Schistosoma mansoni [4]) was 99.53%.
`CNc1ncc2cc(-c3ccc(-c4cccc(C)n4)cc3Cl)c(=O)n(C[C@H]3OC[C@H](N)CO3)c2n1` was tested, and the In vitro activity (Schistosoma mansoni [1]) was “Active”, the In vitro activity (Schistosoma mansoni [2]) was “Active” and the EC50 (Schistosoma mansoni [3]) was 2840 nM. It also gave a Worm movement inhibition (Schistosoma mansoni [4]) of 98.47%.
In the case of `Cc1n[nH]c2ccc(-c3cncc(OC[C@@H](N)Cc4ccccc4)c3)cc12`, the In vitro activity (Schistosoma mansoni [1]) is reported as “Active”, the In vitro activity (Schistosoma mansoni [2]) is reported as “Active” and the EC50 (Schistosoma mansoni [3]) is reported as 2930 nM. It also gave a Worm movement inhibition (Schistosoma mansoni [4]) of 93.77%.
With `COc1ccc(-c2nc(N3CCOCC3)c3sc(CN(C)c4ncc(C(=O)NO)cn4)cc3n2)cn1` [FIMEPINOSTAT] the In vitro activity (Schistosoma mansoni [1]) was “Active”, the In vitro activity (Schistosoma mansoni [2]) was “Active” and the EC50 (Schistosoma mansoni [3]) was 606 nM. For the same molecule, the Worm movement inhibition (Schistosoma mansoni [4]) was 56.87%.
For `OCCCNc1cc(-c2ccnc(Nc3cccc(Cl)c3)n2)ccn1`, the In vitro activity (Schistosoma mansoni [1]) was “Active”, the In vitro activity (Schistosoma mansoni [2]) was “Active” and the EC50 (Schistosoma mansoni [3]) was 410 nM. For the same molecule, the Worm movement inhibition (Schistosoma mansoni [4]) was 98.94%.
With `CC1(C)CC(=O)c2c(C(F)(F)F)nn(-c3ccc(C(N)=O)c(N[C@H]4CC[C@H](O)CC4)c3)c2C1` [SNX-2112] the In vitro activity (Schistosoma mansoni [1]) was “Active”, the In vitro activity (Schistosoma mansoni [2]) was “Active” and the EC50 (Schistosoma mansoni [3]) was 1940 nM. For the same molecule, the Worm movement inhibition (Schistosoma mansoni [4]) was 25.47%.
`C[C@@H]1C[C@H]2O[C@@H]2/C=C\C=C\C(=O)Cc2c(Cl)c(O)cc(O)c2C(=O)O1` [RADICICOL] was tested, and the In vitro activity (Schistosoma mansoni [1]) was “Active”, the In vitro activity (Schistosoma mansoni [2]) was “Active” and the EC50 (Schistosoma mansoni [3]) was 1830 nM. For the same molecule, the Worm movement inhibition (Schistosoma mansoni [4]) was 82.43%.
For `CCNC(=O)c1noc(-c2cc(C(C)C)c(O)cc2O)c1-c1ccc(CN2CCOCC2)cc1` [LUMINESPIB], the In vitro activity (Schistosoma mansoni [1]) was “Active”, the In vitro activity (Schistosoma mansoni [2]) was “Active” and the EC50 (Schistosoma mansoni [3]) was 194 nM. The Worm movement inhibition (Schistosoma mansoni [4]) was 40.22%.
With `COc1cc(N2CCN(C)CC2)ccc1Nc1nccc(-c2cn(C)c3cnccc23)n1` the In vitro activity (Schistosoma mansoni [1]) was “Active”, the In vitro activity (Schistosoma mansoni [2]) was “Active” and the EC50 (Schistosoma mansoni [3]) was 3400 nM. It also gave a Worm movement inhibition (Schistosoma mansoni [4]) of 93.2%.
`Cc1[nH]c(/C=C2\C(=O)Nc3ccc(S(=O)(=O)Cc4c(Cl)cccc4Cl)cc32)c(C)c1C(=O)N1CCC[C@@H]1CN1CCCC1` [PHA-665752] was tested, and the In vitro activity (Schistosoma mansoni [1]) was “Active”, the In vitro activity (Schistosoma mansoni [2]) was “Active” and the EC50 (Schistosoma mansoni [3]) was 4510 nM. It also gave a Worm movement inhibition (Schistosoma mansoni [4]) of 99.71%.
